Patent US9675699B2, “Cooling enhancing compositions” (International Flavors & Fragrances Inc., priority 2011, dated 2017)

Legend:
cooling strength = conditions: with respect to WS-3 = 10.0; cited from earlier work
cooling = experiment: Inherent cooling of materials tasted alone in water; format: in vivo, human
[1] = tested on: cooling profile of menthol; experiment: Example II: cooling profile versus 5 ppm menthol control, group of five trained panelists; format: in vivo, human; conditions: for Average Increase: versus 5 ppm menthol control
Procedure: Responsible actives were determined by comparing the cooling profile of menthol alone (the control) against the solutions with either menthol or cooling enhancing compositions or menthol with the active(s). The profile attributes consist of onset, location, intensity and duration of cooling. Control: 5mg menthol/1 Liter of water (=5 ppm) The use level of 5 ppm is a standard use level within our research facility when looking for cooling enhancement. The levels of the actives were determined after tasting them at varying concentrations within the range of 1 ppm to 200 ppm. The levels presented were deemed to be optimal by offering the greatest functionality. The cooling enhancing compositions listed below were dosed on top of the menthol control. The results below were obtained by a group of five trained panelists.)

[2] = 5 ppm Menthol + 50 ppm test substance in water
[3] = 5 ppm Menthol + 50 ppm test substance

## CNC(=O)C1C(C)CCCC1(C)C (stereo not drawn) [N,2,2,6-Tetramethylcyclohexane-l-carboxamide]
Cooling strength
  relative cooling strength: about 1.0

## O=c1cc(-c2ccc(O)c(O)c2)oc2cc(O)cc(O)c12 [Luteolin]
cooling; 50 ppm in water
  inherent cooling (taste observation): slightly stale flavor, no cooling
[1]; [2]
  Taste Descriptors: Equivalent cooling as compared to control, localized on front tip of tongue, gums and roof of mouth, did not expedite onset but smoothed upfront mouthfeel, slight irritation to tongue and back of mouth/ throat cavity
[1]; [3]
  Average Increase: 32%

## CCNC(=O)C1CC(C)CCC1C(C)C (stereo not drawn) [WS-3]
Cooling strength
  relative cooling strength: 10.0

## CC1CCC(C(C)C)C(C(=O)OCC(O)CO)C1 (stereo not drawn) [WS-30]
Cooling strength
  relative cooling strength: about 1.5

## CNC(=O)C(C)(C(C)C)C(C)C [WS-23]
Cooling strength
  relative cooling strength: about 5.0

## CC1CCC(C(C)C)C(O)C1 (stereo not drawn) [Menthol]
[1]; 5 ppm Menthol alone in water (control)
  Taste Descriptors: thin and moderate cooling, slight burn, some bitterness, cooling on front, tip of tongue and gums, mild cooling on breath-in, slightly harsh and sharp

## CC(C)[C@@H]1CC[C@@H](C)C[C@H]1C(=O)NC(C)(C)C [WS-14]
Cooling strength
  relative cooling strength: about 5.0

## COc1cc([C@@H]2CC(=O)c3c(O)cc(O)cc3O2)ccc1O [Homoeriodictyol]
cooling; 5 ppm in water
  inherent cooling (taste observation): taste neutral, slightly drying, no cooling
cooling; 25 ppm in water
  inherent cooling (taste observation): drying, not cooling
[1]; 5 ppm Menthol + 5 ppm test substance in water
  Taste Descriptors: faster onset of cooling than menthol alone, cooling localized on front of tongue, cold as in temperature, slight teeth cooling, fully delocalized cooling after 10 seconds reaching back of throat and roof of mouth, mild cooling on breath-in, diminished menthol burn
[1]; 5 ppm Menthol + 5 ppm test substance
  Average Increase: 66%

## CC(C)[C@@H]1CC[C@@H](C)C[C@H]1OC(=O)CCCC(=O)O [monomenthyl glutarate]
Cooling strength
  relative cooling strength: about 3.5

## CCOC(=O)CNC(=O)[C@@H]1C[C@H](C)CC[C@H]1C(C)C [WS-5]
Cooling strength
  relative cooling strength: about 16.7

## O=C1C[C@@H](c2ccc(O)c(O)c2)Oc2cc(O)cc(O)c21 [Eriodictyol]
cooling; 35 ppm in water
  inherent cooling (taste observation): slight irritation (piperin-like burn) without cooling
[1]; [2]
  Taste Descriptors: Cooling localized on middle of tongue stronger than control, more intense in back of throat on breath-in, does not trigger a faster onset, cooling builds more after expectorating and on breath-in, sharpened the intensity of cooling in the center and sides of tongue and roof of mouth
[1]; [3]
  Average Increase: 56%

## COc1ccc([C@@H]2CC(=O)c3c(O)cc(O)cc3O2)cc1O [Hesperetin]
[1]; [2]
  Taste Descriptors: Sweet, no impact on cooling, slightly bitter, drying, cooling is delocalized and about the same strength as control
[1]; [3]
  Average Increase: 0%

## CC1CCC(C(C)C)C(OC(=O)C(C)O)C1 (stereo not drawn) [Menthyl Lactate]
Cooling strength
  relative cooling strength: about 2.9
